The nature of data set [1]: Liver microsomal stability, human. The format is in vitro ADME. Conditions: pH 7.4, liver microsomes. As for the experimental part:
Microsomal incubations were carried out in 96-well plates in 5 aliquots of 40 μL each (one for each time point). Liver microsomal incubation medium contained PBS (100 mM, pH 7.4), MgCl2 (3.3 mM), NADPH (3 mM), glucose-6-phosphate (5.3 mM), glucose-6-phosphate dehydrogenase (0.67 units/ml) with 0.42 mg of liver microsomal protein per ml. Control incubations were performed replacing the NADPH-cofactor system with PBS. Test compound (2 μM, final solvent concentration 1.6%) was incubated with microsomes at 37° C., shaking at 100 rpm. Incubations were performed in duplicates. Five time points over 40 minutes have been analyzed. The reactions were stopped by adding 12 volumes of 90% acetonitrile-water to incubation aliquots, followed by protein sedimentation by centrifuging at 5500 rpm for 3 minutes. […]. Supernatants were analyzed using the HPLC system coupled with tandem mass spectrometer (API3000 PE Sciex). Acquisition and analysis of the data were performed using Analyst 1.5.2 software (PE Sciex). The elimination constant (kel), half-life (t½) and intrinsic clearance (Clint) were determined in plot of […] versus time, using linear regression analysis:
A 10 mM stock solution of compound in DMSO is diluted three-fold in DMSO. This pre-diluted compound solution is then further diluted to 2 μM in a 50 mM phosphate buffer (PBS, pH 7.4) and pre-warmed at 37° C. This compound dilution is mixed F2 with microsomal/cofactor mix at 37° C. under shaking at 300 rpm. Final reaction conditions are: 100 μL incubation volume, 1 μM of test compound (in duplicate), <0.1% DMSO, 0.5 mg/mL microsomes, 0.6 U/mL Glucose-6-phosphate-dehydrogenase (G6PDH, Roche, 10127671001), 3.3 mM MgCl2 (Sigma, M2670), 3.3 mM glucose-6-phosphate (Sigma, G-7879) and 1.3 mM NADP+ (Sigma, N-0505).
After 60 min of incubation at 300 rpm and 37° C., the reaction was stopped with 3 volumes of STOP solution (acetonitrile/MeOH 2/1 with diclofenac as internal standard). For the time point zero, 3 volumes of STOP solution were added to the compound dilution before the microsome mix was added. Six time points over 60 minutes have been analyzed. The samples of all time points were centrifuged, filtered and the supernatant analyzed by LCMS/MS (systems API4000).
The instrument responses (peak areas/IS peak area) were referenced to the zero time-point samples (considered as 100%) in order to determine the percentage of compound remaining.
Testosterone (1 μM) and Propranolol and Caffeine (1 μM) were used as reference compounds, being unstable and stable compounds respectively. If the microsomal stability values for these controls are not in the range determined by the historical data, the assay is not validated. The solubility of the compound in the final test concentration in 50 mM buffer pH 7.4 is checked by microscope to indicate whether precipitation is observed or not. If a precipitate is observed, no data of microsomal stability is generated.
(Microsomes from liver hold many membrane-bound enzymes, among them those of drug oxidation.)

A short description of data set [2]: Kinetic solubility. The format is physicochemical. Conditions: kinetic from dmso stock. As for the experimental part: Starting from a 20 mM stock solution of test compound in 100% DMSO, dilutions were prepared to a theoretical concentration of 400 μM in duplicates in phosphate-buffered saline pH 7.4 (PBS) (138 mM NaCl, 2.7 mM KCl, 10 mM K-phosphate) and 100 mM citrate buffer pH 3.0 with 2% final DMSO.
The experimental compound dilutions in PBS and citrate buffer were further allowed to equilibrate at 25° C. on a thermostatic orbital shaker for two hours and then centrifuged at 14000 rpm, 5 min and filtered through HTS filter plates using a vacuum manifold. The filtrates of test compounds were diluted 2-fold with acetonitrile with 2% DMSO before measuring. In parallel, compound dilutions in 50% acetonitrile/buffer were prepared to the theoretical concentrations of 0 μM (blank), 100 μM, 200 μM and 400 μM with 2% final DMSO to generate calibration curves.
Ondansetron (Sigma Aldrich USA, cat #03639) was used as a reference to control proper assay performance. 200 μl of each sample were transferred to a 96-well plate and solubility was measured in a 200-550 nm range (in steps of 5 nm). The measurements were performed using a Spectra Max Plus reader in UV-Vis mode. Acquisition and analysis of the data were performed using SoftMax Pro v.5.4 (Molecular Devices) and Excel 2010 data analysis software. Proper absorbance wavelengths for calculations were selected for each compound manually based on absorbance maximums (absolute absorbance unit values for the minimum and maximum concentration points within 0-3 OD range). Each of the final datasets was additionally visually evaluated by the operator and goodness of fit (R2) is calculated for each calibration curve.

Data set [3] concerns the target CYP2D6 (Homo sapiens (Human), UniProt P10635). In words: CYP inhibition, CYP2D6. Format: in vitro ADME. The note with it: test compound at 10 μM, read-out: % Inhibition (PIN) 2D6. As for the experimental part:
(§1) The aim of this assay is to determine the inhibitory potential of a test compound. A major concern for drug-drug-interaction is cytochrome P450 inhibition. Reversible CYP inhibition was determined in human liver microsomes using specific probe substrates for human cytochrome P450 isoenzymes CYP1A2, 2C9, 2C19, 2D6 and 3A4. […]
(§2) A 10 mM stock solution of test compound is prepared in methanol. This stock is further serially diluted 1:3 in methanol and then added to mixture containing 50 mM potassium phosphate buffer pH7.4, human liver microsomes (BD Gentest) and probe substrate. After pre-warming 5 min at 37° C., the reaction is started by adding co-factor mix ([…] glucose-6-phosphate, 1.7 mg/mL NADP, 6 U/mL of glucose-6-phosphate dehydrogenase), resulting in a final concentration of test compound at 10 μM (2% MeOH).
(§3) Final concentrations of co-factor mix components are as follows: 1.56 mg/mL glucose-6-phosphate, 0.34 mg/mL NADP, 1.2 U/mL of glucose-6-phosphate dehydrogenase.
(§4) After incubation at 37° C., the reaction (aliquot of 50 μL) is terminated with 150 μL CH3CN:MeOH (2:1) solution with internal standard (warfarin for 2C9, diclofenac for all other tested isoforms). Samples are centrifuged and the supernatant fractions analyzed by LC-MS/MS.
(§5) The instrument responses (ratio of test compound and internal standard peak areas) are referenced to those for solvent controls (assumed as 100%) in order to determine the percentage reduction in probe metabolism. Percent of control activity vs. concentration plots are generated and fitted using GraphPad Prism software to generate IC50.

Data set [4] addresses CYP2C19 (Homo sapiens (Human), UniProt P33261). Description: CYP inhibition, CYP2C19. The format is in vitro ADME. Conditions: test compound at 10 μM, read-out: % Inhibition (PIN) 2C19. As for the experimental part: as §1, §2, §3, §4, §5
The mark [5] stands for this setting: aqueous buffer, kinetic solubility, phosphate-buffered saline pH 7.4, 2% DMSO, 25° C., two hours, read-out: PBS solubility, pH 7.4.
Where [6] appears, read: citrate buffer, 25 °C, pH 3, aqueous buffer, read-out: Citrate buffer solubility, pH 3.0.

Structures are written as SMILES. ≈ marks a conversion by molar mass, not a printed value. Read-outs that look alike come from different tables or passages of the source.

Chain of CYP2C19 (P33261 whole entry): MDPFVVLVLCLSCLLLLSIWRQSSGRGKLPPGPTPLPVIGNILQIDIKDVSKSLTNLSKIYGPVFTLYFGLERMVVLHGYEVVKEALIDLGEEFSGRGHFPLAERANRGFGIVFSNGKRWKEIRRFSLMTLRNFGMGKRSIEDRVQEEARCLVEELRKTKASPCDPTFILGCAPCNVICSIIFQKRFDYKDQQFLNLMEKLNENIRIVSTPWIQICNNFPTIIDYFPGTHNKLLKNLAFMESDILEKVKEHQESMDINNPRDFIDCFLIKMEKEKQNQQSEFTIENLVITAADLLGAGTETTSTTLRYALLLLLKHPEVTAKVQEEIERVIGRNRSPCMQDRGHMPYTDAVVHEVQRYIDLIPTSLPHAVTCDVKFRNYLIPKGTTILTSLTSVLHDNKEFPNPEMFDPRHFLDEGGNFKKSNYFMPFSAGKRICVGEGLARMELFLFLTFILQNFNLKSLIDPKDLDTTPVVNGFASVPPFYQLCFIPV
Chain of CYP2D6 (P10635 whole entry): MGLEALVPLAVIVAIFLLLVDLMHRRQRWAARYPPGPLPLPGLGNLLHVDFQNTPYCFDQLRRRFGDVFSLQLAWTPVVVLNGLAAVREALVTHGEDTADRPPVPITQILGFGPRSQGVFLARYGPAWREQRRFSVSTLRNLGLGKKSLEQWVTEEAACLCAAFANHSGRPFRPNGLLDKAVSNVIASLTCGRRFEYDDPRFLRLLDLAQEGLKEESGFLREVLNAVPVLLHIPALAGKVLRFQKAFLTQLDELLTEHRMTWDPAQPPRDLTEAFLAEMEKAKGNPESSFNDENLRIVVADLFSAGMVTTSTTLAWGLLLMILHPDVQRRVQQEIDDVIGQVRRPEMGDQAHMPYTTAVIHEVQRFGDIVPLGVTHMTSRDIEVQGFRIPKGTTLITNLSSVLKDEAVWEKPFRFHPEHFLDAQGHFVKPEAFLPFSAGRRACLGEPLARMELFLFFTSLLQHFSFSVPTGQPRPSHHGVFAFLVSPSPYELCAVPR

In general, microsomal CLint refers to the rate of metabolic loss divided by the concentration. Higher therefore signals faster metabolism. By solubility is commonly meant how much of the substance goes into solution per volume. In turn, `CCCCOC(=O)NS(=O)(=O)c1ccc(C(F)(F)F)cc1N1CCN(Cc2nc3ccccc3n2C)CC1` [Compound A-09, butyl N-[2-[4-[(1-methylbenzimidazol-2-yl)methyl]piperazin-1-yl]-4-(trifluoromethyl)phenyl]sulfonylcarbamate] returned a microsomal CLint in data set [1] of 37 µL/min/mg. In addition, the results for the solubility at 2 h in data set [2] (setting [5]) and in data set [2] (setting [6]) were 318 µM (≈ 176 µg/mL) and not below 400 µM, respectively.

In general, inhibition refers to the drop in the measured response relative to a control, in per cent. `CCCCNC(=O)NS(=O)(=O)c1ccc(C(F)(F)F)cc1N1CCN(Cc2nc3ccccc3n2C)CC1` [Compound A-10, 1-butyl-3-[2-[4-[(1-methylbenzimidazol-2-yl)methyl]piperazin-1-yl]-4-(trifluoromethyl)phenyl]sulfonyl-urea] displayed a microsomal CLint in data set [1] of 99 µL/min/mg. For the same compound, the solubility at 2 h in data set [2] (setting [5]) and in data set [2] (setting [6]) was not below 400 µM throughout. Further, the inhibition at 10 µM in data set [3] is 14.8%; in data set [4], 38.6%.

The compound `CCCCNC(=O)NS(=O)(=O)c1ccc(C)cc1N1CCN(Cc2nc3ccccc3n2C)CC1` [Compound A-12, 1-butyl-3-[4-methyl-2-[4-[(1-methylbenzimidazol-2-yl)methyl]piperazin-1-yl]phenyl]sulfonyl-urea] came in with a microsomal CLint in data set [1] of 259 µL/min/mg. In addition, the solubility at 2 h in data set [2] (setting [5]) was 54 µM (≈ 26.9 µg/mL); in data set [2] (setting [6]) it was not below 400 µM.

The compound `CC(C)Cc1ccc(-c2nn[nH]n2)c(N2CCN(Cc3nc4ccccc4n3C)CC2)c1` [Compound A-20, 2-[[4-[5-isobutyl-2-(2H-tetrazol-5-yl)-phenyl]piperazin-1-yl]methyl]-1-meth-yl-benzimidazole] returned a microsomal CLint in data set [1] of 24 µL/min/mg. The solubility at 2 h in data set [2] (setting [5]) and in data set [2] (setting [6]) was not below 400 µM in each case.

`CC(C)Oc1ccc(-c2nn[nH]n2)c(N2CCN(Cc3nc4ccccc4n3C)CC2)c1` [Compound A-24, 2-[[4-[5-isopropoxy-2-(2H-tetrazol-5-yl)phenyl]piperazin-1-yl]methyl]-1-methyl-benzimidazole] returned a microsomal CLint in data set [1] of 8 µL/min/mg. In addition, the solubility at 2 h in data set [2] (setting [5]) and in data set [2] (setting [6]) was not below 400 µM throughout. For the same compound, the inhibition at 10 µM was 3.85% in data set [3] and 30.9% in data set [4].

Regarding `CC(C)Oc1ccc(-c2nn[nH]n2)c(N2CCN(Cc3nc4ccccc4s3)CC2)c1` [Compound A-51, 2-[[4-[5-isoprop-oxy-2-(2H-tetrazol-5-yl)phenyl]piper-azin-1-yl]methyl]-1,3-benzothiazole], the microsomal CLint in data set [1] is 12 µL/min/mg. The solubility at 2 h in data set [2] (setting [5]) is not below 400 µM; in data set [2] (setting [6]), 4 µM (≈ 1.74 µg/mL).

In data set [1], `Cc1cc(CN2CCN(c3cc(CC(C)C)ccc3-c3nn[nH]n3)CC2)no1` [Compound A-82, 3-[[4-[5-isobutyl-2-(2H-tetrazol-5-yl)phenyl]piperazin-1-yl]methyl]-5-methyl-isoxazole] gave a microsomal CLint of 15 µL/min/mg. Also, the inhibition at 10 µM was -2.54% in data set [3] and -4.12% in data set [4].

In data set [1], `CC(C)Cc1ccc(-c2nn[nH]n2)c(N2CCN(Cc3nccn3C)CC2)c1` [Compound A-83, 1-[5-isobutyl-2-(2H-tetrazol-5-yl)-phenyl]-4-[(1-meth-ylimidazol-2-yl)-methyl]piperazine] gave a microsomal CLint of 6 µL/min/mg. Besides, the inhibition at 10 µM is -0.65% in data set [3] and 6.38% in data set [4].

As to `CC(C)Cc1ccc(-c2nn[nH]n2)c(N2CCN(Cc3ccnn3C)CC2)c1` [Compound A-84, 1-[5-isobutyl-2-(2H-tetrazol-5-yl)phenyl]-4-[(1-methylpyrazol-5-yl)methyl]piperazine], the microsomal CLint in data set [1] stood at 40 µL/min/mg. In addition, the inhibition at 10 µM in data set [3] was -7.67%; in data set [4] it was 18.9%.

Regarding `CC(C)Cc1ccc(-c2nn[nH]n2)c(N2CCN(Cc3ncccn3)CC2)c1` [Compound A-88], in data set [1], the microsomal CLint was 6 µL/min/mg. For the same compound, the inhibition at 10 µM in data set [3] stood at 6.32%; in data set [4], 17.6%.

`CCC1CN(Cc2cccnn2)CCN1c1cc(CC(C)C)cc(F)c1-c1nn[nH]n1` (stereo not shown) [Compound A-181, 3-[[3-ethyl-4-[3-fluoro-5-isobutyl-2-(2H-tetrazol-5-yl)phenyl]piperazin-1-yl]methyl]pyridazine] came in with a microsomal CLint in data set [1] of 12 µL/min/mg. Also, the solubility at 2 h in data set [2] (setting [5]) was not below 400 µM; in data set [2] (setting [6]), 388 µM (≈ 165 µg/mL).

Compound `CC(C)Cc1cc(F)c(-c2nn[nH]n2)c(N2CC(C)N(Cc3cccnn3)CC2C)c1` (stereo not shown) [Compound A-183, 3-[[4-[3-fluoro-5-isobutyl-2-(2H-tetrazol-5-yl)phen-yl]-2,5-dimethyl-piperazin-1-yl]-methyl]pyridazine] yielded a microsomal CLint in data set [1] of 7 µL/min/mg. For the same compound, the solubility at 2 h in data set [2] (setting [5]) was found to be 383 µM (≈ 163 µg/mL); in data set [2] (setting [6]) it was 377 µM (≈ 160 µg/mL).

`CC(C)Cc1cc(F)c(-c2nn[nH]n2)c(N2CCN(Cc3ccccn3)[C@@H](C)C2)c1` [Compound A-217, (2S)-4-[3-fluoro-5-isobutyl-2-(2H-tetrazol-5-yl)phenyl]-2-methyl-1-(2-pyridylmethyl)piperazine] had a microsomal CLint in data set [1] of less than 6.6 µL/min/mg. The inhibition at 10 µM came to 68% in data set [3] and 39% in data set [4].

In turn, `Cc1cnc(CN2CCN(c3cc(CC(C)C)cc(F)c3-c3nn[nH]n3)C[C@@H]2C)s1` [Compound A-223, 2-[[(2S)-4-[3-fluoro-5-isobutyl-2-(2H-tetrazol-5-yl)phenyl]-2-methyl-piperazin-1-yl]methyl]-5-methyl-thiazole] yielded a microsomal CLint in data set [1] of 18.2 µL/min/mg. The inhibition at 10 µM in data set [3] worked out at 15%; in data set [4] it was 25%.

(Values after US20240368133A1, “Compounds for the Treatment of Pain, in Particular, Neuropathic Pain, and/or Other Diseases or Disorders that are Associated with AT2R and/or AT2R Mediated Signaling” (Confo Therapeutics N.V., priority 2021, published 2024).)
